Test results taken from ChEMBL document CHEMBL4184118, “Carbazole-containing amides and ureas: Discovery of cryptochrome modulators as antihyperglycemic agents” (Bioorg Med Chem Lett, 2018).
In brackets after ≈: the same amount, converted by molar mass.

Assays:
CRY2/PER2 = target: T1, CRY2/PER2 (Homo sapiens, UniProt O15055+Q49AN0); assay: Modulation activity at CRY2/PER2 in human U2OS cells harboring per2-dLuc assessed as activation of per2 activity measured every 100 mins for 5 days by luciferase reporter gene assay; assay type: cell-based
T1 sequence (O15055 whole entry): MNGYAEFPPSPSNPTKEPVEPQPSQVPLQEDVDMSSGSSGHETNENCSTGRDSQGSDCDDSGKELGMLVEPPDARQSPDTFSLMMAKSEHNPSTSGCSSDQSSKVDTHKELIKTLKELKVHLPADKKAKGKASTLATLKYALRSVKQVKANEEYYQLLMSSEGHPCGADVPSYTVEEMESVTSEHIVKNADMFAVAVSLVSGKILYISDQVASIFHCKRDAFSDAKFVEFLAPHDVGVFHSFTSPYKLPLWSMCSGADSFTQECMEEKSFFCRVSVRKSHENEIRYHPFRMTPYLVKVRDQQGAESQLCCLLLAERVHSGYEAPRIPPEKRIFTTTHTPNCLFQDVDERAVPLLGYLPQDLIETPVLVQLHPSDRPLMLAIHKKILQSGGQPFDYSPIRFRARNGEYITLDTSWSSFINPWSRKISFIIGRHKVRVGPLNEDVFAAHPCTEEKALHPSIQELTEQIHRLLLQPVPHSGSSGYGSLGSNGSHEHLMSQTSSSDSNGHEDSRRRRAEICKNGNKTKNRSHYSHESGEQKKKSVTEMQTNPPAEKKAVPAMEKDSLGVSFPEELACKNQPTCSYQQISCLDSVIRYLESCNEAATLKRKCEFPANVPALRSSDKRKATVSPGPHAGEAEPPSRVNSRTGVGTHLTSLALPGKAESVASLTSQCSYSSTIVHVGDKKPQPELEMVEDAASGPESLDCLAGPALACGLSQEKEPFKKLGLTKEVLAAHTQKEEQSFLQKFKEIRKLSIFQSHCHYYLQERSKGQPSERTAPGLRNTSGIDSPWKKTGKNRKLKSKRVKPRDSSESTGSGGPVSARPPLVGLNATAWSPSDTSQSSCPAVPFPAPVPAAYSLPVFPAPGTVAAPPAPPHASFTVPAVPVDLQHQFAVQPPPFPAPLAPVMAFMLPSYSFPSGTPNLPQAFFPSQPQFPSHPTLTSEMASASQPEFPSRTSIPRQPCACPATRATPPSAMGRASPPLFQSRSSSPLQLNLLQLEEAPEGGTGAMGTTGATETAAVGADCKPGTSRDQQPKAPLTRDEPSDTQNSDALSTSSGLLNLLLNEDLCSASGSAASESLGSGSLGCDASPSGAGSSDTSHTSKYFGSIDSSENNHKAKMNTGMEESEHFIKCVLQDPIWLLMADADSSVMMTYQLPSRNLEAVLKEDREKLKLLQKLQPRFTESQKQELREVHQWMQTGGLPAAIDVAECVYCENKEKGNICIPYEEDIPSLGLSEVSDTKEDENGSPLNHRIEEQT
T1 sequence (Q49AN0 whole entry): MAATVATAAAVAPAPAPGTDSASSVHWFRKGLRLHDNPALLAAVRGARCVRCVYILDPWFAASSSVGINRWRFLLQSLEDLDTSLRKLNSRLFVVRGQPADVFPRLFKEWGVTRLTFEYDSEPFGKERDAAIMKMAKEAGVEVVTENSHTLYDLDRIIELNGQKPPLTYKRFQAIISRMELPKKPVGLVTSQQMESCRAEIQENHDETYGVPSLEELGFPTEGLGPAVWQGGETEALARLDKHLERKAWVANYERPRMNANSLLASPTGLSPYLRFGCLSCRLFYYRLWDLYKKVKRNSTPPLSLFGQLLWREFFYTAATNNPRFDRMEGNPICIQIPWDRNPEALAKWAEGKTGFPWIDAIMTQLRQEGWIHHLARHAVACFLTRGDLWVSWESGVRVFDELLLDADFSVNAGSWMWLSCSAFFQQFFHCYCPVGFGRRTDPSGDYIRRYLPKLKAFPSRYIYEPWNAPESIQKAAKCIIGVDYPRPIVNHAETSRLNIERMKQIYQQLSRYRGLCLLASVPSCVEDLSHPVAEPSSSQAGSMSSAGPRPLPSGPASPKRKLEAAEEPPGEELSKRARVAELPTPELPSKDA

[1] = Half life in db/db mouse at 30 mg/kg, po qd; assay type: ADME, organism-based; conditions: in vivo
Mus musculus = assay: Unbound Cmax in db/db mouse at 30 mg/kg, po qd after 1 to 24 hrs; assay type: ADME, organism-based; conditions: in vivo
[2] = MRT in db/db mouse at 30 mg/kg, po qd after 1 to 24 hrs; assay type: ADME, organism-based; conditions: in vivo
[3] = Total Cmax in db/db mouse at 30 mg/kg, po qd after 1 to 24 hrs; assay type: ADME, organism-based; set-up: dose 30 mg/kg, route oral; conditions: in vivo
[4] = Kinetic solubility in simulated gastric fluid; assay type: physicochemical; conditions: read-out: Kinetic_solubility

Compound	EC50 (CRY2/PER2)	also measured
COC1CC(=O)N(CC(O)Cn2c3ccc(F)cc3c3cc(F)ccc32)C1 (stereo not drawn)	1140 nM	
O=C1Cc2ccccc2N1CC(O)Cn1c2ccc(F)cc2c2cc(F)ccc21 (stereo not drawn)	3730 nM	
CC(C)C1CCN(CC(O)Cn2c3ccc(F)cc3c3cc(F)ccc32)C1=O (stereo not drawn)	261 nM	
COC1CNC(=O)N(CC(O)Cn2c3ccc(F)cc3c3cc(F)ccc32)C1 (stereo not drawn)	1120 nM	
O=C1OCCN1CC(O)Cn1c2ccc(F)cc2c2cc(F)ccc21 (stereo not drawn)	9770 nM	
O=C1CCC2CC2N1CC(O)Cn1c2ccc(F)cc2c2cc(F)ccc21 (stereo not drawn)	565 nM	
O=C1C(c2ccccc2)CCCN1CC(O)Cn1c2ccc(F)cc2c2cc(F)ccc21 (stereo not drawn)	547 nM	
O=C1N(CC(O)Cn2c3ccc(F)cc3c3cc(F)ccc32)CCCN1c1ccccc1 (stereo not drawn)	171 nM	
CCN1CCCN(CC(O)Cn2c3ccc(F)cc3c3cc(F)ccc32)C1=O (stereo not drawn)	497 nM	
CC1CCN(CC(O)Cn2c3ccc(F)cc3c3cc(F)ccc32)C(=O)N1 (stereo not drawn)	417 nM	
COC1CCCN(CC(O)Cn2c3ccc(F)cc3c3cc(F)ccc32)C1=O (stereo not drawn)	330 nM	half-life [1]: 130 min; fCmax (Mus musculus): 0.007 µM; MRT [2]: 2.68 h; Cmax [3]: 235 nM; solubility kinetic [4]: 188 µM (≈ 72.9 µg/mL)
CC1(C)CCN(CC(O)Cn2c3ccc(F)cc3c3cc(F)ccc32)C1=O (stereo not drawn)	164 nM	
O=C1C(c2ccccc2)CCN1CC(O)Cn1c2ccc(F)cc2c2cc(F)ccc21 (stereo not drawn)	487 nM	
O=C1C(F)CCN1CC(O)Cn1c2ccc(F)cc2c2cc(F)ccc21 (stereo not drawn)		half-life [1]: 178 min; fCmax (Mus musculus): 0.03 µM; MRT [2]: 3.27 h; Cmax [3]: 1010 nM; solubility kinetic [4]: 184 µM (≈ 66.7 µg/mL)
O=C1C(F)CCCN1CC(O)Cn1c2ccc(F)cc2c2cc(F)ccc21 (stereo not drawn)	79 nM	
CCN1CCN(CC(O)Cn2c3ccc(F)cc3c3cc(F)ccc32)C1=O (stereo not drawn)	1060 nM	
CC1CCN(CC(O)Cn2c3ccc(F)cc3c3cc(F)ccc32)C(=O)C1 (stereo not drawn)	128 nM	
O=C1N(CC(O)Cn2c3ccc(F)cc3c3cc(F)ccc32)CCCC1(F)F (stereo not drawn)	194 nM	
COC1CCC(=O)N(CC(O)Cn2c3ccc(F)cc3c3cc(F)ccc32)C1 (stereo not drawn)	397 nM	
O=C1N(CC(O)Cn2c3ccc(F)cc3c3cc(F)ccc32)CCN1c1ccccc1 (stereo not drawn)	528 nM	
CC1CNC(=O)N1CC(O)Cn1c2ccc(F)cc2c2cc(F)ccc21 (stereo not drawn)	1190 nM	
O=C1Cc2ccccc2CN1CC(O)Cn1c2ccc(F)cc2c2cc(F)ccc21 (stereo not drawn)	15200 nM	
O=C1CCCCN1CC(O)Cn1c2ccc(F)cc2c2cc(F)ccc21 (stereo not drawn)	192 nM	
O=C1NCCCN1CC(O)Cn1c2ccc(F)cc2c2cc(F)ccc21 (stereo not drawn)	188 nM	half-life [1]: 143 min; fCmax (Mus musculus): 0.045 µM; MRT [2]: 2.98 h; Cmax [3]: 1020 nM; solubility kinetic [4]: 85.6 µM (≈ 30.8 µg/mL)
O=C1COCCN1CC(O)Cn1c2ccc(F)cc2c2cc(F)ccc21 (stereo not drawn)	447 nM	
CC1CCNC(=O)N1CC(O)Cn1c2ccc(F)cc2c2cc(F)ccc21 (stereo not drawn)	742 nM	
CC1CCC(=O)N1CC(O)Cn1c2ccc(F)cc2c2cc(F)ccc21 (stereo not drawn)	199 nM	

Compound	EC50 (CRY2/PER2)	also measured
CC1CCCN(CC(O)Cn2c3ccc(F)cc3c3cc(F)ccc32)C1=O (stereo not drawn)	1150 nM	
CC(C)N1CCN(CC(O)Cn2c3ccc(F)cc3c3cc(F)ccc32)C1=O (stereo not drawn)	605 nM	
O=C1c2ccccc2CCN1CC(O)Cn1c2ccc(F)cc2c2cc(F)ccc21 (stereo not drawn)	1360 nM	
CC1CCC(=O)N(CC(O)Cn2c3ccc(F)cc3c3cc(F)ccc32)C1 (stereo not drawn)	224 nM	
CC(C)C1CCCN(CC(O)Cn2c3ccc(F)cc3c3cc(F)ccc32)C1=O (stereo not drawn)	79 nM	
CC(C)N1CCCN(CC(O)Cn2c3ccc(F)cc3c3cc(F)ccc32)C1=O (stereo not drawn)	620 nM	
O=C1C2CC2CCN1CC(O)Cn1c2ccc(F)cc2c2cc(F)ccc21 (stereo not drawn)	167 nM	
O=C1C2CC2CN1CC(O)Cn1c2ccc(F)cc2c2cc(F)ccc21 (stereo not drawn)	246 nM	
CC1CCCC(=O)N1CC(O)Cn1c2ccc(F)cc2c2cc(F)ccc21 (stereo not drawn)	541 nM	
O=C1OCCCN1CC(O)Cn1c2ccc(F)cc2c2cc(F)ccc21 (stereo not drawn)	4980 nM	
CC1(C)CCCN(CC(O)Cn2c3ccc(F)cc3c3cc(F)ccc32)C1=O (stereo not drawn)	463 nM	
CC1CN(CC(O)Cn2c3ccc(F)cc3c3cc(F)ccc32)C(=O)N1 (stereo not drawn)	667 nM	half-life [1]: 155 min; fCmax (Mus musculus): 0.01 µM; MRT [2]: 4.16 h; Cmax [3]: 557 nM; solubility kinetic [4]: 181 µM (≈ 64.9 µg/mL)
COC1CCN(CC(O)Cn2c3ccc(F)cc3c3cc(F)ccc32)C1=O (stereo not drawn)	855 nM	
CC1CC(=O)N(CC(O)Cn2c3ccc(F)cc3c3cc(F)ccc32)C1 (stereo not drawn)	1030 nM	
O=C1CCc2ccccc2N1CC(O)Cn1c2ccc(F)cc2c2cc(F)ccc21 (stereo not drawn)	7430 nM	
O=C1CC2CC2CN1CC(O)Cn1c2ccc(F)cc2c2cc(F)ccc21 (stereo not drawn)	149 nM	
O=C1N(CC(O)Cn2c3ccc(F)cc3c3cc(F)ccc32)CCC1(F)F (stereo not drawn)	716 nM	
CC1CCN(CC(O)Cn2c3ccc(F)cc3c3cc(F)ccc32)C1=O (stereo not drawn)	424 nM	
CCC1CCN(CC(O)Cn2c3ccc(F)cc3c3cc(F)ccc32)C1=O (stereo not drawn)	417 nM	
O=C1CCCN1CC(O)Cn1c2ccc(F)cc2c2cc(F)ccc21 (stereo not drawn)	625 nM	half-life [1]: 177 min; fCmax (Mus musculus): 0.011 µM; MRT [2]: 3.32 h; Cmax [3]: 415 nM; solubility kinetic [4]: 148 µM (≈ 51.1 µg/mL)
CC1CNC(=O)N(CC(O)Cn2c3ccc(F)cc3c3cc(F)ccc32)C1 (stereo not drawn)	833 nM	
O=C1C2CCC(C2)N1CC(O)Cn1c2ccc(F)cc2c2cc(F)ccc21 (stereo not drawn)	163 nM	half-life [1]: 128 min; fCmax (Mus musculus): 0.01 µM; MRT [2]: 2.92 h; Cmax [3]: 551 nM; solubility kinetic [4]: 168 µM (≈ 62.2 µg/mL)
CCC1CCCN(CC(O)Cn2c3ccc(F)cc3c3cc(F)ccc32)C1=O (stereo not drawn)	332 nM	
CN1CCCN(CC(O)Cn2c3ccc(F)cc3c3cc(F)ccc32)C1=O (stereo not drawn)	719 nM	half-life [1]: 154 min; fCmax (Mus musculus): 0.002 µM; MRT [2]: 3.51 h; Cmax [3]: 63 nM; solubility kinetic [4]: 162 µM (≈ 60.4 µg/mL)
CS(=O)(=O)N(Cc1ccco1)CC(O)Cn1c2ccccc2c2ccccc21 (stereo not drawn)	870 nM	
CN1CCN(CC(O)Cn2c3ccc(F)cc3c3cc(F)ccc32)C1=O (stereo not drawn)	406 nM	
O=C1c2ccccc2CN1CC(O)Cn1c2ccc(F)cc2c2cc(F)ccc21 (stereo not drawn)	1490 nM	
